Earlier results, collected in patent publication US8034838B2, “Composition and method for the treatment of neurological disorders” (priority 2008, dated 2011).

Experiments:
β-secretase = β-secretase (Homo sapiens, UniProt P56817)
[1] = after administration

β-secretase, sequence (P56817 46-501): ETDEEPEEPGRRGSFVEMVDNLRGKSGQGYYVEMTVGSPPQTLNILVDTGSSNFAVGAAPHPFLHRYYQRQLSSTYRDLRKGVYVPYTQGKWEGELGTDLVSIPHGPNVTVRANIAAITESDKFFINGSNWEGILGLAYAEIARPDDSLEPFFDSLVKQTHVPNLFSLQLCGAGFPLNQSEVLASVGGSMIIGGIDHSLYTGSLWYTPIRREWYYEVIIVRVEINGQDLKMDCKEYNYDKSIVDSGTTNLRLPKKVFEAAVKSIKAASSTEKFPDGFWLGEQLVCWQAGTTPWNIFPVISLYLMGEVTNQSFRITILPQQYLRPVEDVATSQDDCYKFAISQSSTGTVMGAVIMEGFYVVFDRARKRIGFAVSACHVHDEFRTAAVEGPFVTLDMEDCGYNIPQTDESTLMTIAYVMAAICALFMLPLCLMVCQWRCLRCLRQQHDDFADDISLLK

SMILES: O=c1c(O)c(-c2cc(O)c(O)c(O)c2)oc2cc(O)cc(O)c12 [myricetin, Myricetin]
- regulation of α-secretase (α-secretase): up-regulates
- regulation of β-secretase (β-secretase): down-regulates
- regulation of γ-secretase (γ-secretase): down-regulates
- time to cross the blood brain barrier [1]: ≤ 30 min
